# Patent publication US6448011B1, “DNA encoding human alpha 1 adrenergic receptors and uses thereof” (Synaptic Pharmaceutical Corporation, priority 1992, dated 2002)
# Structures can show the parent of a compound that is named as a salt.
# System: not given
# Assay: not given
# Conditions: not given
row,Molecule,melting point
1,"O=C(CCCN1CCC(NC(=O)c2ccccc2)CC1)c1ccc(Cl)cc1 (as salt: HCl) [Compound 7, 1-[3-(4-chlorobenzoyl)propyl]-4-benzamidopiperidine]",243 to 244 °C

# Target: T1, α1c receptor (Bos taurus, UniProt P18130)
# T1 sequence (P18130 1-466): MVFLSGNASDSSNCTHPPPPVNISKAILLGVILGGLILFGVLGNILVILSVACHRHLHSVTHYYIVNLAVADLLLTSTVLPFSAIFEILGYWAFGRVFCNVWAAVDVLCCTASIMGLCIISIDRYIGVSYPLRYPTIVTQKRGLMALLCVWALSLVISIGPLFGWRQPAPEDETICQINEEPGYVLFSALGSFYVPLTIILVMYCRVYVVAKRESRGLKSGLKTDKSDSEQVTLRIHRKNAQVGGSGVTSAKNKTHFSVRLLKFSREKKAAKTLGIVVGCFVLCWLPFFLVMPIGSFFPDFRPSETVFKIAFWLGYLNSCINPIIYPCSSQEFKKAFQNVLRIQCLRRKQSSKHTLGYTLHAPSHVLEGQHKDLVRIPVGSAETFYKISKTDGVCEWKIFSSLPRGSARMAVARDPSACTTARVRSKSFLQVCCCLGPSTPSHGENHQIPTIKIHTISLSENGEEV
# Assay: not given
# Conditions: expressed α1c receptor; cited from earlier work
row,Molecule,fold higher affinity than the α1b-receptor
1,Cc1ccc(N(CC2=NCCN2)c2cccc(O)c2)cc1 [phentolamine],30 fold

# System: human prostate tissue
# Assay: Inhibition of phenylephrine-induced contraction of human prostate tissue strips
# Conditions: dose-ratio method
# Procedure: Methods: Prostatic adenomas were obtained at the time of surgery from patients with symptomatic BPH. These were cut into longitudinal strips of 15 mm long and 2-4 mm wide, and suspended in 5 ml organ baths containing Krebs buffer (pH 7.4). The baths were maintained at 37° C. and continuously oxygenated with 5% CO2 and 95% O2. Isometric tension was measured with a Grass Instrument FT03 force transducer interfaced with a computer.
# Tissue strips were contracted with varying concentrations of phenylephrine after incubating for 20 minutes in the absence and presence of at least three different concentrations of antagonist. Dose-response curves for phenylephrine were constructed, and the antagonist potency (pA2) was estimated by the dose-ratio method. […] This control was necessary to account for losses of antagonist due to adsorption to the tissue bath and/or metabolism during the time the antagonists were equilibrated with the prostate tissue.
row,Molecule,Human Prostate (pA)
1,"4-fluoro-4-(8-fluoro-1,3,4,5-tetrahydro-2H-pyrido[4,3-b]indol-2-yl)butyrophenone hydrochloride [Compound A-30360]",8.72
2,O=C(NC1CCN(CCc2c[nH]c3ccccc23)CC1)c1ccccc1 [Indoramin],7.86
3,"C=Cc1sc2ccc(Cl)c3c2c1CN(C)CC3 [SKF-104856, 7-Chloro-2-ethenyl-3,4,5,6-tetrahdyro-4-methylthieno[4,3,2-ef][3]benzazepine]",7.66
4,"COc1ccccc1N1CCN(CCCNc2c(C)c(=O)n(C)c(=O)n2C)CC1 [5-Methyl Urapidil, 5-methylurapidil]",8.38
5,COc1cc2nc(N3CCN(C(=O)c4ccco4)CC3)nc(N)c2cc1OC [Prazosin],9.08
6,"O=C(CCCN1CCC(NC(=O)c2ccccc2)CC1)c1ccccc1 [Compound 9, 1-(3-benzoylpropyl)-4-benzamidopiperidine]",7.41
7,"O=C(CCCN1CCC(NC(=O)c2ccccc2)CC1)c1ccc(Cl)cc1 [Compound 7, 1-[3-(4-chlorobenzoyl)propyl]-4-benzamidopiperidine]",7.63
8,"COc1cc2nc(N3CCN(C(=O)C4CCCO4)CC3)nc(N)c2cc1OC (stereo not shown) [Terazosin, 2[4-(Tetrahydro-2-furoyl)piperazinyl]-4-amino-6,7-dimethoxyquinazoline hydrochloride]",7.30
